This is an account of results in patent US5281581A, “Treatment of insulin resistance” (Amylin Pharmaceuticals, Inc., priority 1992, dated 1994).

In this test the test system is rat islets of Langerhans. The test can be described thus: glucose-stimulated insulin secretion by isolated islets of Langerhans. The format is cell-based. To be noted: glucose 10 mmol/L. As to the method:
All experiments were performed by known methods used in experimental practice. See, e.g., Lacey P. E., and Kostianovsky M, Method for the isolation of intact islets of Langerhans from the rat pancreas. Diabetes 1967; 16: 35-39.
Briefly, rats were killed, and islets of Langerhans were isolated from their pancreases. Experiments were performed either with freshly isolated islets or after overnight incubation of islets (23 h) in standard culture medium and conditions at 37° C. […] Incubation of islets for these experiments was carried out in standard Krebs-Heinsleit buffer, and it was verified that the addition of the 1.0 mmol/L citrate buffer had no effect on the pH of the incubation medium. Stimulation of islets was carried out at the standard stimulatory glucose concentration of 10 mmol/L.
Production of insulin is expressed as μU/islet/h. All experiments were performed with five replicates per point. The integrity of the islet response was assessed by comparing the responses after stimulation of different aliquots of islets by two and ten mmol/L glucose, respectively, and the strength of the inhibitory response was judged against that induced by 1 μg/ml (650 nmol/L) somatostatin. […] See Arimura A. Biomed res 1981; 2: 233-257. […] See Petterson M., Ahren B., Bottcher G., Sundler F., Endocrinology 1986; 119: 865-869.
The results are shown in TABLE 5 below and all results are expressed as ± standard error of the mean (s.e.m.). The significance of differences between the means of groups is assessed by the t-test. The result of stimulation by 10 mmol/L glucose is compared with the results of stimulation at 2 mmol/L glucose. In all other experimental conditions, the significance of the inhibitory effect is measured against the effect of 10 mmol/L glucose alone.

In the case of `C[C@H](N)C(=O)NCC(=O)N[C@H]1CSSC[C@@H](C(=O)O)NC(=O)[C@H](CO)NC(=O)[C@H]([C@@H](C)O)NC(=O)[C@H](Cc2ccccc2)NC(=O)[C@H]([C@@H](C)O)NC(=O)[C@H](CCCCN)NC(=O)[C@H](Cc2c[nH]c3ccccc23)NC(=O)[C@H](Cc2ccccc2)NC(=O)[C@H](Cc2ccccc2)NC(=O)[C@H](CC(N)=O)NC(=O)[C@H](CCCCN)NC1=O` [Somatostatin, reference compound], for the setting “substance 650 nmol/L”, the “INSULIN PRODUCTION Mean Value” was 44 μU/islet/hr and the “RELATIVE INSULIN SECRETION INHIBITION” value was found to be 45%.
On to CGRP 27-37, for which the “INSULIN PRODUCTION Mean Value” (substance 10 nmol/L) was 36 μU/islet/hr, the “INSULIN PRODUCTION Mean Value” (substance 100 nmol/L) worked out at 36 μU/islet/hr and the “INSULIN PRODUCTION Mean Value” (substance 1000 nmol/L) is 46 μU/islet/hr. Besides, the “RELATIVE INSULIN SECRETION INHIBITION” value (substance 10 nmol/L) was determined as 55%, the “RELATIVE INSULIN SECRETION INHIBITION” value (substance 100 nmol/L) worked out at 55% and the “RELATIVE INSULIN SECRETION INHIBITION” value (substance 1000 nmol/L) worked out at 42%.
